Where a name gives a salt, the structure may show the parent alone. Blank lines part the entries; values can stand above or below the compound they belong to.
What was measured:
[1] = system: skin barrier (flanks of hairless mice); experiment: TEWL topical studies: barrier recovery after acetone or tape stripping with topical proton-pump inhibitors; format: in vivo; conditions: DCCD-treated skin immersed in an acidic buffer
Method: Proton-pump inhibitors: N,N'-dicyclohexylcarbodiimide (DCCD); 1-10 mM); N-ethyl maleimide (NEM; 1 mM); 7-chloro-4-nitrobenz-2-oxa-1,3-diazole (NBD Cl; 1 mM) and bafilomycin A1 (10 μM) were prepared in vehicle (i.e., 70% propylene glycol, 30% ethanol). Flanks of hairless mice were pre-treated for 30 minutes to 1 hour with drug or vehicle alone before breaking the barrier with acetone. TEWL readings were taken at various time points as described above, followed by additional treatments with drug or vehicle. The DCCD-override study included immersion of flanks in HEPES buffer at pH 5.5 or 7.4 after the pre-treatment with either drug or vehicle and after breaking the barrier with either acetone or by tape stripping.
Test results are shown in FIG. 7 (NEM, NBD-chloride, BAF).

[2] = system: skin barrier (stratum corneum, treated flank of hairless mouse); experiment: TEWL (water permeability) after oleic acid treatment and application of drug delivery compound; format: in vivo; conditions: for TEWL (T = 4 hours): vehicle 266±22; for water permeability: words
Method: (§1) A female hairless mouse, aged 8 weeks, was treated with oleic acid. After oleic acid treatment, epicholesterol, which substitutes for cholesterol, or transvaccenic acid or stearyl amine, both of which substitute for free fatty acid, was applied to the animal.
TEWL (trans-epidermal water loss) was measured before and after treatment at convenient time intervals when the animal was alert. An Evaperimeter (ServoMed) was used.
(§2) First, TEWL of the left (LHS) and right (RHS) dorsal sides was measured. Then, the animal was anesthetized by 0.25 ml chloral hydrate (CH) IP injection. At t=0, an aliquot of 30 μl oleic acid solution (5% in propylene glycol/ethanol 7:3 (v/v)) was applied directly to both sides of the animal (~1.5×3 cm) using a Hamilton syringe. Two hours after oleic acid treatment, the TEWL rates of both sides were measured, and the RHS was treated with 30 μl of epicholesterol alone and with transvaccenic acid or stearylamine (1.5% in propylene glycol/ethanol 7:3 (v/v)). TEWL was measured thereafter every 2 or 3 hours.
(§3) The mice were kept under anesthesia until the harvest of tissue samples and then sacrificed. At time zero, the tested drug delivery compound listed in Tables 2, 3 and 4 below was applied to the whole treated flank of each mouse. After four hours TEWL was measured again and two drug formulations,one containing lidocaine in a vehicle of a mixture of propylene glycol and ethanol and the other containing Leuteinizing Hormone Releasing Hormone (LHRH) in a vehicle of 60% ethanol, 20% propylene glycol and 20% water. Residual formulation was removed from the skin surface with cotton balls three times and the cotton balls were put into vial #1. Five tape-strippings were conducted at the treated skin sites, and each tape was put into an individual vial numbered 2-6. At the same time, blood was drawn and stored under refrigeration. Urine was collected from the mice during the two hour drug application period and placed into vial #8.

[3] = Percutaneous lidocaine delivery (scintillation counting of plasma and body); set-up: species or system hairless mouse; conditions: mouse, in vivo
Method: as §1, §2, §3
After an additional two hours, the treated skin was cut off, the subcutaneous fat was removed, and the whole skin was placed into vial #7 to which 1 ml of tissue solubilizer was added, and the mixture was allowed to digest overnight at 55° C. The corpse was digested in 100 ml of saponification mix at 55° C. overnight.
For analysis, 10 ml of Scintisafe (30% ) Scintillation media (Fisher Scientific, Fairlawn, N.J.) was added to vials 1-6, and 8. The blood samples were centrifuged, and an aliquot of 100-200 μl was placed into vial #9 and 10 ml of Scintisafe (30%) was added. Similar aliquots of the corpse digest were placed into vials #10 and #11. To vials #9, 10, and 11, 100 μl of 30% hydrogen peroxide was added to decolorize the contents for about two hours. Then […] of Scintisafe (30%) and 150 μl of acetic acid were added and the mixture was let stand overnight. All vials were subjected to scintillation counting as described above. The parameters for the vehicle are as follows: TEWL 266±22 (T=4 hours); plasma concentration 0.31±0.03%; total body concentration 13.13±0.83(% dose/ml plasma); N=14.

[4] = Table 2/Table 3, no hourly application, TRIS 50 mM, HEPES 20 mM

SMILES: C(=NC1CCCCC1)=NC1CCCCC1 [DCCD, N,N'-dicyclohexylcarbodiimide]
- barrier recovery, override study [1]: normalized (corrected) the rate of barrier recovery

- lidocaine delivery ([3]; pH 5.5): significant increases
SMILES: O=S(=O)(O)CCN1CCN(CCO)CC1 [HEPES, (N-[2-Hydroxyethyl]piperazine-N'-[2-ethanesulfonic acid])]
- TEWL (T = 4 hours) ([2]; Table 2/Table 3, hourly application, HEPES 20 mM, listed as HEPES (pH 5.5)): 560 ± 125
- TEWL (T = 4 hours) ([2]; Table 2/Table 3, hourly application, HEPES 20 mM, listed as HEPES (pH 7.4)): 460 ± 24
- TEWL (T = 4 hours) [2, 4]: 360 ± 18
- water permeability ([2]; alone, single application, pH 5.4): approached statistical significance (p=0.05-0.10)
- water permeability ([2]; hourly to maintain pH 5.5): significant increases
- water permeability ([2]; hourly to maintain pH 7.4): increased water permeability was significant
- lidocaine delivery ([3]; pH 5.4): approached statistical significance (p=0.05-0.10)
- lidocaine delivery ([3]; pH 7.4): only increased water permeability was significant

SMILES: NC(CO)(CO)CO [TRIS, Tris(hydroxymethyl) aminomethyl maleate]
- TEWL (T = 4 hours) [2, 4]: 583 ± 109
- water permeability ([2]; alone, pH 5.5): significantly increased
- lidocaine delivery ([3]; pH 5.5): very significantly (p≤0.001) increased

- Plasma Conc. (lidocaine) [3]: 0.24 ± 0.05 % dose/ml plasma
- Total Body Conc. (lidocaine) [3]: 11.40 ± 1.98%
- lidocaine delivery [3]: significantly increased
SMILES: CC(C)CCC[C@@H](C)[C@H]1CC[C@H]2[C@@H]3CC=C4C[C@H](O)CC[C@]4(C)[C@H]3CC[C@]12C [epicholesterol]
- TEWL (T = 4 hours) ([2]; Table 4, synthetic lipid analogs in propylene glycol/ethanol): 397 ± 55
